# In the supplement of paper PMC5908809:
# Legend:
# Test in all cases: relative IC50 (inflection point of fitted viability curve, relative to fitted max inhibition); higher = less sensitive
# Conditions in all cases: 72 h
# DERL-7 (IL-2 2.5 ng/mL) = system: DERL-7 (IL-2 2.5 ng/mL)
# Protocol: (§1)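 Drug sensitivity and resistance testing: 5 concentrations over a 10,000-fold range, 72 h at 37 °C, viability by CellTiter-Glo normalised to DMSO and benzethonium chloride controls. IC50 is the inflection point of a logistic fit (min fixed at 0, max fitted), so it is relative to the fitted maximal inhibition. Kept only where fitted max inhibition is at least 50%.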
# IMC-1 (IL-2 20 ng/mL) = system: IMC-1 (IL-2 20 ng/mL)
# Protocol: as §1
# [1] = system: normal primary NK cells, pool 1 (3 donors), resting (IL-2 0 ng/mL)
# Protocol: as §1
# SNK-6 (IL-2 2.5 ng/mL) = system: SNK-6 (IL-2 2.5 ng/mL)
# Protocol: as §1
# KAI3 (IL-2 2.5 ng/mL) = system: KAI3 (IL-2 2.5 ng/mL)
# Protocol: as §1
# KHYG-1 (IL-2 2.5 ng/mL) = system: KHYG-1 (IL-2 2.5 ng/mL)
# Protocol: as §1
# NK-92 (IL-2 2.5 ng/mL) = system: NK-92 (IL-2 2.5 ng/mL)
# Protocol: as §1
# YT (IL-2 2.5 ng/mL) = system: YT (IL-2 2.5 ng/mL)
# Protocol: as §1
# NK-YS (IL-2 2.5 ng/mL) = system: NK-YS (IL-2 2.5 ng/mL)
# Protocol: as §1
# NKL (IL-2 2.5 ng/mL) = system: NKL (IL-2 2.5 ng/mL)
# Protocol: as §1
SMILES,relative IC50 (DERL-7 (IL-2 2.5 ng/mL)) [nM],relative IC50 (IMC-1 (IL-2 20 ng/mL)) [nM],relative IC50 [1] [nM],relative IC50 (SNK-6 (IL-2 2.5 ng/mL)) [nM],relative IC50 (KAI3 (IL-2 2.5 ng/mL)) [nM],relative IC50 (KHYG-1 (IL-2 2.5 ng/mL)) [nM],relative IC50 (NK-92 (IL-2 2.5 ng/mL)) [nM],relative IC50 (YT (IL-2 2.5 ng/mL)) [nM],relative IC50 (NK-YS (IL-2 2.5 ng/mL)) [nM],relative IC50 (NKL (IL-2 2.5 ng/mL)) [nM]
N[C@@H]1CCCN(c2c(/C=C3\SC(=O)NC3=O)cccc2-c2ccccc2)C1 [AZD1208],304,> 10000,,,,,,,,
COc1cc2ncnc(Nc3ccc(F)c(Cl)c3)c2cc1NC(=O)/C=C/CN1CCCCC1 [Dacomitinib],,,404,,,,,,,
Nc1cccc2c1CN(C1CCC(=O)NC1=O)C2=O (stereo unspecified) [Lenalidomide],> 100000,,6060,3460,17100,,,,,
C[C@@H]1CN(Cc2ccc(F)cc2)[C@@H](C)CN1C(=O)c1cc2c(C(=O)C(=O)N(C)C)cn(C)c2cc1Cl [Talmapimod],,,,> 10000,,> 10000,,,,
CC[C@@H]1C(=O)N(C)c2cnc(Nc3ccc(C(=O)N[C@H]4CC[C@H](N5CCN(CC6CC6)CC5)CC4)cc3OC)nc2N1C(C)C [Volasertib],19.6,30,,6.44,26.5,28.3,12.6,29,24.3,36.2
C/C(=C\c1csc(C)n1)[C@@H]1C[C@@H]2O[C@]2(C)CCC[C@H](C)[C@H](O)[C@@H](C)C(=O)C(C)(C)[C@@H](O)CC(=O)O1 [Patupilone],2.74,3.36,,2.61,6.77,15.2,6.8,8.42,11.7,12.4
CC(C)n1nc(-c2ccc3oc(N)nc3c2)c2c(N)ncnc21 [INK128],15.1,,,,22.8,124,21.7,28.2,51,8.91
COc1ccc(S(=O)(=O)Nc2cccnc2Nc2ccc(O)cc2)cc1 [ABT-751],294,283,,76.1,243,196,122,207,135,381
CCC1=C[C@@H]2CN(C1)Cc1c([nH]c3ccccc13)[C@@](C(=O)OC)(c1cc3c(cc1OC)N(C)[C@H]1[C@@](O)(C(=O)OC)[C@H](OC(C)=O)[C@]4(CC)C=CCN5CC[C@]31[C@@H]54)C2 [Vinorelbine],5.07,3.26,1460,2.95,7.28,8.26,23.2,7.29,5.98,3.89
CN1CCN(C2CCN(C(=O)Nc3cc(Oc4ccc(NC(=O)C5(C(=O)Nc6ccc(F)cc6)CC5)c(F)c4)ccn3)CC2)CC1 [Golvatinib],,,,,,715,,,,
O=C(CCBr)N1CCN(C(=O)CCBr)CC1 [Pipobroman],,,,> 10000,,,,,,
C[C@]12CC[C@H](O)CC1=CC[C@@H]1[C@@H]2CC[C@]2(C)C(c3cccnc3)=CC[C@@H]12 [Abiraterone],,,,> 5000,,,,,,
C[C@@H]1COC(Nc2ccc3ncnc(Nc4ccc(OCc5nccs5)c(Cl)c4)c3c2)=N1 [Varlitinib],,,> 10000,,,,,,,
COc1ccc(COc2cc3oc(=O)c4cc(C(C)O)ccc4c3cc2OC)cc1 (stereo unspecified) [Palomid-529],,,,,,1960,1280,,,
CCCCCOC(=O)Nc1nc(=O)n([C@@H]2O[C@H](C)[C@@H](O)[C@H]2O)cc1F [Capecitabine],2520,> 10000,,1630,1080,> 10000,,,,
Cn1cc(-c2ccc3nnc(Sc4ccc5ncccc5c4)n3n2)cn1 [SGX-523],,> 5000,,,,> 5000,,,,
COc1ccc(-c2ccc3c(N4CCOC[C@@H]4C)nc(N4CCOC[C@@H]4C)nc3n2)cc1CO [AZD8055],21.7,,,16.3,10.3,135,121,55.6,77.3,5.08
CN1CCN(CCOc2cc(OC3CCOCC3)c3c(Nc4c(Cl)ccc5c4OCO5)ncnc3c2)CC1 [Saracatinib],1590,3200,1620,,2110,3140,1590,1200,2260,
COc1cc2ncnc(Oc3cccc(NC(=O)Nc4cc(C(C)(C)C(F)(F)F)on4)c3)c2cc1OC,,,,> 10000,,,,,,
C#Cc1cccc(Nc2ncnc3cc(OCCOC)c(OCCOC)cc23)c1 [Erlotinib],,,3360,,1300,,,,,
CCn1nnc2c(N3CCOCC3)nc(-c3ccc(NC(=O)Nc4ccc(C(=O)N5CCN(C)CC5)cc4)cc3)nc21 [PKI-402],89.1,,,210,90.9,316,428,208,154,97.1
Cc1cc(Nc2cc(N3CCN(C)CC3)nc(Sc3ccc(NC(=O)C4CC4)cc3)n2)n[nH]1 [Tozasertib],46.3,283,,50.2,349,193,636,,51,
Cc1c(C(=O)Nc2ccc(N3C[C@@H](C)O[C@@H](C)C3)nc2)cccc1-c1ccc(OC(F)(F)F)cc1 [Sonidegib],,2250,,,,,1150,,,
C[C@@H](Oc1cc(-c2cnn(C3CCNCC3)c2)cnc1N)c1c(Cl)ccc(F)c1Cl [Crizotinib],,,,> 1000,,,,,,
CS(=O)(=O)N1CCc2c(-c3cnc(N)nc3)nc(N3CCOCC3)nc21,1000,,,,384,,316,1290,940,451
CC[C@H](CO)Nc1nc(NCc2ccccc2)c2ncn(C(C)C)c2n1 [Seliciclib],,,,,2380,,,1850,,

SMILES,relative IC50 (DERL-7 (IL-2 2.5 ng/mL)) [nM],relative IC50 (IMC-1 (IL-2 20 ng/mL)) [nM],relative IC50 [1] [nM],relative IC50 (SNK-6 (IL-2 2.5 ng/mL)) [nM],relative IC50 (KAI3 (IL-2 2.5 ng/mL)) [nM],relative IC50 (KHYG-1 (IL-2 2.5 ng/mL)) [nM],relative IC50 (NK-92 (IL-2 2.5 ng/mL)) [nM],relative IC50 (YT (IL-2 2.5 ng/mL)) [nM],relative IC50 (NK-YS (IL-2 2.5 ng/mL)) [nM],relative IC50 (NKL (IL-2 2.5 ng/mL)) [nM]
O=C(NOCC1CC1)c1ccc(F)c(F)c1Nc1ccc(I)cc1Cl,1310,2220,,3940,608,851,3220,1850,1650,153
O=C(Nc1c[nH]nc1-c1nc2ccc(CN3CCOCC3)cc2[nH]1)NC1CC1 [AT9283],41.1,78,> 1000,39.7,69.8,47.2,65.8,135,41.9,85.5
CC(C)C[C@H](NC(=O)[C@@H](COC(C)(C)C)NC(=O)[C@H](Cc1ccc(O)cc1)NC(=O)[C@H](CO)NC(=O)[C@H](Cc1c[nH]c2ccccc12)NC(=O)[C@H](Cc1cnc[nH]1)NC(=O)[C@@H]1CCC(=O)N1)C(=O)N[C@@H](CCCNC(=N)N)C(=O)N1CCC[C@H]1C(=O)NNC(N)=O [Goserelin],,,,> 10000,,,,,,
Cn1nnc2c(C(N)=O)ncn2c1=O [Temozolomide],,15800,> 100000,1610,,,,,,25700
CNC(=O)c1ccc(C)c(-n2c(C)cc(OCc3ccc(F)cc3F)c(Br)c2=O)c1,,,,> 1000,,,,,,
CON(C)C(=O)N1N=C(c2cc(F)ccc2F)S[C@@]1(CCCN)c1ccccc1 [Filanesib],,3.15,,,,,,,,
Clc1ccccc1C(c1ccccc1)(c1ccccc1)n1cccn1 [TRAM-34],,,> 1000,,,,,,,
Nc1nc(NC2CC2)cc(-c2cccc(Cl)c2Cl)n1 [TH588],7900,6380,,809,1730,2050,1550,2120,854,2180
O=C(c1cc(Cc2n[nH]c(=O)c3ccccc23)ccc1F)N1CCN(C(=O)C2CC2)CC1 [Olaparib],,1610,,1670,1260,2020,1560,,1620,237
Nc1cc(F)ccc1NC(=O)/C=C/c1cnn(C/C=C/c2ccccc2)c1 [RGFP966],1530,,,1460,1940,,1680,,,1350
CCNC(=O)Nc1ccc(-c2nc3c(c(N4CCOC[C@@H]4C)n2)CCN(C2COC2)C3)cc1 [RG-7603],156,> 2500,,,,,,,,185
Nc1ccn([C@@H]2O[C@H](CO)[C@@H](O)C2(F)F)c(=O)n1 [Gemcitabine],10.9,3.08,,6.48,5.17,2.14,2.77,15.3,4.67,0.73
CCc1c(C(=O)C(N)=O)c2c(OCC(=O)O)cccc2n1Cc1ccccc1 [Varespladib],,> 10000,,,,,,,,
O[C@H]1CC[C@H](Nc2ncc3nc(Nc4c(F)cc(F)cc4F)n([C@H]4CCOC4)c3n2)CC1 [Tanzisertib],,,,> 10000,,,,,,
CCc1cc(Nc2nccc(-c3c(-c4ccc(OC)c(C(=O)Nc5c(F)cccc5F)c4)nc4ccccn34)n2)c(OC)cc1N1CCC(N2CCN(S(C)(=O)=O)CC2)CC1,,> 10000,,> 10000,,> 10000,,,,> 10000
CC(C)N(CCCNC(=O)Nc1ccc(C(C)(C)C)cc1)C[C@H]1O[C@@H](n2cc(Br)c3c(N)ncnc32)[C@H](O)[C@@H]1O [SGC0946],,,3660,,2540,,,,,
Nc1cccc2c1C(=O)N(C1CCC(=O)NC1=O)C2=O (stereo unspecified) [Pomalidomide],,> 10000,> 10000,,> 10000,> 10000,> 10000,> 10000,> 10000,
CNc1nc(-c2ccc3c(N)n[nH]c3c2)cc(N2C[C@@H](C(=O)NC3CCCCC3)CC[C@H]2C)n1,248,> 10000,,> 10000,,,,,,
CO[C@H]1C[C@@H]2CC[C@@H](C)[C@@](O)(O2)C(=O)C(=O)N2CCCC[C@H]2C(=O)O[C@H]([C@H](C)C[C@@H]2CC[C@@H](O)[C@H](OC)C2)CC(=O)[C@H](C)/C=C(\C)[C@@H](O)[C@@H](OC)C(=O)[C@H](C)C[C@H](C)/C=C/C=C/C=C/1C [Sirolimus],5,,,0.8,2.41,6.55,,,1.01,0.3
O=c1ncn2nc(Sc3ccc(F)cc3F)ccc2c1-c1c(Cl)cccc1Cl [VX 745],,,,,779,,,,,719
Cc1ccc(C(=O)N(CCCN)[C@@H](c2oc3cc(Cl)ccc3c(=O)c2Cc2ccccc2)C(C)C)cc1,21.8,3.17,,4.13,10.9,3.04,20.9,24.2,3.75,5.2
NC(=O)c1cccc2cn(-c3ccc([C@@H]4CCCNC4)cc3)nc12 [Niraparib],2170,1800,,3140,1580,2230,1920,,1490,219
CON(C)C(=O)N1N=C(c2cc(F)ccc2F)S[C@@]1(CCCN)c1ccccc1 [ARRY-520],3.14,,> 1000,2.57,,3.25,10.2,22.9,3.86,5.25
COc1cc2c(Oc3ccc(NC(=O)C4(C(=O)Nc5ccc(F)cc5)CC4)cc3F)ccnc2cc1OCCCN1CCOCC1 [Foretinib],369,,,,,,,,191,
CNCc1ccc(-c2[nH]c3cc(F)cc4c3c2CCNC4=O)cc1 [Rucaparib],,,,,,,,,2000,438
